Data set [1] relates to weeds. As to the kind of experiment: Post-emergence test (Example B), activity against weeds. The format is in vivo. The note with it: test plants of 5-15 cm sprayed, rated after three weeks. As to the method: Post-Emergence Test • Solvent: 5 parts by weight of acetone • Emulsifier: 1 part by weight of alkylaryl polyglycol ether
(§1) To produce a suitable preparation of active compound, 1 part by weight of active compound is mixed with the stated amount of solvent, the stated amount of emulsifier is added and the concentrate is diluted with water to the desired concentration.
Test plants of a height of 5-15 cm are sprayed with the preparation of active compound such that the particular amounts of active compound desired are applied per unit area. The concentration of the spray liquor is chosen such that the particular amounts of active compound desired are applied in 1 000 1 l of water/ha.
After three weeks, the degree of damage to the plants is rated in % damage in comparison to development of the untreated control.
The figures denote: • 0%=no effect (like untreated control) • 100%=total destruction

The nature of data set [2]: logP determination by HPLC on reversed-phase column (C 18), EEC Directive 79/831 Annex V.A8. Particulars: reversed-phase HPLC column (C 18); printed in text without mark a) or b). It counts as physicochemical. The procedure: The logP values given in the table were determined in accordance with EEC Directive 79/831 Annex V.A8 by HPLC (High Performance Liquid Chromatography) using a reversed-phase column (C 18). Temperature: 43° C. (a) Mobile phases for the determination in the acidic range: 0.1% aqueous phosphoric acid, acetonitrile; linear gradient from 10% acetonitrile to 90% acetonitrile—corresponding measurement results in Table 1 are marked ^a). (b) Mobile phases for the determination in the neutral range: 0.01 molar aqueous phosphate buffer solution, acetonitrile; linear gradient from 10% acetonitrile to 90% acetonitrile—corresponding measurement results in Table 1 are marked ^b). Calibration was carried out using unbranched alkan-2-ones (having 3 to 16 carbon atoms) with known logP values (determination of the logP values by the retention times using linear interpolation between two successive alkanones).

For data set [3], the system named is weeds. As to the kind of experiment: Pre-emergence test (Example A), activity against weeds. It counts as in vivo. Particulars: soil sprayed 24 hours after sowing, rated after three weeks. The procedure:
Pre-Emergence Test • Solvent: 5 parts by weight of acetone • Emulsifier: 1 part by weight of alkylaryl polyglycol ether
as §1
Seeds of the test plants are sown in normal soil. After 24 hours, the soil is sprayed with the preparation of active compound such that the particular amount of active compound desired is supplied per unit area. The concentration of active compound in the spray liquor is chosen such that the particular amount of active compound desired is applied in 1000 litres of water per hectare.
After three weeks, the degree of damage to the plants is rated in % damage in comparison to the development of the untreated control. The figures denote: • 0%=no effect (like untreated control) • 100%=total destruction

In patent publication US7439207B2, “2,6 substituted pyridine-3-carbonyl derivatives serving as plant protection agents having herbicidal action” (Bayer CropScience AG, priority 2002, dated 2008) one finds activity against weeds and chromatographic logP data, which are given here for two molecules.

For orientation: chromatographic logP means a lipophilicity value derived from retention on a column. Read a low chromatographic logP as lower lipophilicity. In the case of `CN1CCN(Cc2nc(C(F)(F)F)ccc2C(=O)C2C(=O)CCCC2=O)C1=O` [Example 1, 2-[2-(3-methyl-2-oxoimidazolidin-1-ylmethyl)-6-trifluoromethylpyridine-3-carbonyl]cyclohexane-1,3-dione], the activity against weeds entry with weeds [1] and with weeds [3] was “strong activity” throughout. The same molecule came in with a chromatographic logP in data set [2] of 2.14.

`CN1CCN(Cc2nc(C(F)(F)F)ccc2C(=O)O)C1=O` [Example II-1, 6-trifluoromethyl-2-(3-methyl-2-oxoimidazolidin-1-ylmethyl)nicotinic acid] displayed a chromatographic logP in data set [2] of 1.62.
